Publication PMC4657899, “Design, Synthesis and In Vitro Activity of Anticancer Styrylquinolines. The p53 Independent Mechanism of Action” (PLoS ONE, 2015)

What was measured:
GM 07492 = assay: MTS cytotoxicity assay, normal fibroblasts GM 07492; assay type: cell-based; conditions: 72 h incubation, normal human fibroblasts, mean ± SD
Procedure: (§1) The human colon adenocarcinoma cell line HCT116 along with wild type p53 (p53^+/+) were obtained from the ATCC. The normal human fibroblast cell line GM 07492 and HCT116 with a p53 deletion (p53^-/-) were kindly provided by prof. M. Rusin from Maria Sklodowska-Curie Memorial Cancer Center and Institute of Oncology in Gliwice, Poland. Cells were grown as monolayer cultures in 75 cm^2 flasks (Nunc) in Dulbecco’s modified Eagle’s medium with an antibiotic gentamicin (200 μL/100 mL medium). DMEM for HCT116 were supplemented with 12% heat-inactivated fetal bovine serum (Gibco) and for GM 07492 with 15% fetal bovine serum (Gibco). Cells were cultured under standard conditions at 37°C in a humidified atmosphere at 5% CO2.
(§2) The cells were seeded in 96-well plates 24 h before the addition of the compounds that were tested. The assay was performed following a 72 h incubation with varying concentrations of the agents that were tested. The results were calculated as IC50 values (using GraphPad Prism 5). Each individual compound was tested in triplicate in a single experiment with each experiment being repeated three times. After a 72 h incubation with the compounds that were tested, 20 μL of The CellTiter 96®AQueous One Solution—MTS (Promega) solution was added to each well (with 100 μL DMEM without phenol red) and incubated for 1 h at 37°C. The optical densities of the samples were analyzed at 490 nm. Results were expressed as a percentage of the control.

HCT116 (p53+/+) = assay: MTS anti-proliferative assay, HCT116 (p53+/+); assay type: cell-based, human; conditions: mean ± SD
Procedure: as §1, §2

HCT116 (p53-/-) = assay: MTS anti-proliferative assay, HCT116 (p53-/-); assay type: cell-based, human; conditions: for IC50: MTS, 72 h incubation, mean ± SD
Procedure: as §1, §2

HCT116 +/+ = assay: Trypan blue staining test, HCT116 +/+; assay type: cell-based, human; conditions: S2 Table, trypan blue cell counting, 72 h
Procedure: (§3) The cells were seeded in 3 cm Petri dishes (Nunc) and incubated at 37°C. After 24h, solutions […]
(§4) a 72 h incubation with tested compounds, the cells were trypsinize d with 0.05% Trypsin -EDTA solution (Sigma). Then, 90µl of suspension cells transferred into 96 -well plate containing 10µl Trypan blue reagent in wells. The cells were counted under an optical inverted microscope Olympus CKX31. The results from three independent experiment were calculated as IC 50 values using GraphPad Prism 5 software.

HCT116 -/- = assay: Trypan blue staining test, HCT116 -/-; assay type: cell-based, human; conditions: S2 Table, trypan blue cell counting, 72 h
Procedure: as §3, §4

Calf-thymus DNA (CT-DNA) = assay: Spectrophotometric DNA binding (intercalation) study with CT-DNA
Procedure: For the DNA binding studies, Calf-thymus DNA (CT-DNA) was purchased from Sigma Aldrich. The lyophilized CT-DNA was dissolved in 10 mM Tris-HCl, pH 7.9, mixed gently and left overnight at 4°C. Then, the concentration of CT-DNA was determined from the absorbance at 260 nm using an extinction coefficient of 6600 M^-1cm^-1. […] Afterwards, 18 μM CT-DNA was added to the prepared solutions and were incubated for 1.5 h at 37°C with occasional vortexing. Absorption spectra were measured using a Hitachi U-2900 spectrophotometer in range of 200–600 nm. All absorption spectra were imported and compared in OriginPro 8.0.

[1] = Homo sapiens, HCT-116, 72 h incubation

SMILES	IC50 (HCT116 (p53+/+); 72 h incubation)	IC50 (HCT116 (p53-/-))	IC50 (HCT116 (p53+/+); [1])	IC50 (HCT116 (p53-/-); Homo sapiens, HCT-116)	melting point	also measured
Oc1ccccc1C=Cc1ccc2ccccc2n1 [1a]	17.4 ± 2.2 µM	14.1 ± 2.24 µM				IC50 (GM 07492): > 25 µM
CCOc1ccccc1C=Cc1ccc2c(Cl)cc(Cl)c(O)c2n1 [1c, 5,7-Dichloro-2 – [2-(2-ethoxyphenyl)vinyl]quinolin-8-ol]			5.93 ± 0.97 µM	3.25 ± 1.81 µM	100 to 102 °C	IC50 (GM 07492; Fibroblast): > 25 µM
CCOc1ccc(C=Cc2ccc3ccccc3n2)cc1 [2a]			> 25 µM	> 25 µM		
CC(=O)Oc1ccccc1C=Cc1ccc2cccc(OC(C)=O)c2n1 [2b]	8.08 ± 0.56 µM	14.7 ± 1.74 µM				IC50 (GM 07492): 6.92 ± 1.72 µM
Oc1c(Cl)cc(Cl)c2ccc(C=Cc3ccccc3Cl)nc12 [2c, 5,7-Dichloro-2 – [2-(2-chlorophenyl)vinyl]quinolin-8-ol]					205 to 210 °C	
CCCCOc1ccc(C=Cc2ccc3ccccc3n2)cc1 [3a]	> 25 µM	> 25 µM				IC50 (HCT116 +/+): > 25 µM; IC50 (HCT116 -/-): > 25 µM
CC(=O)Oc1ccccc1C=Cc1ccc2cccc(O)c2n1 [3b]	7.32 ± 1.01 µM	13.5 ± 0.81 µM				IC50 (GM 07492): > 25 µM
CCOc1ccc(C=Cc2ccc3c(Cl)cc(Cl)c(O)c3n2)cc1 [3c, 5,7-Dichloro-2 – [2-(4-ethoxyphenyl)vinyl]quinolin-8-ol]			2.23 µM	3.53 ± 0.83 µM	156 to 158 °C	IC50 (GM 07492; Fibroblast): > 25 µM; % hypochromism (Calf-thymus DNA (CT-DNA); 18 μM CT-DNA, 1.5 h 37°C, Tris-HCl pH 7.9, at the (first) absorption band (CP-31398: 312)): 11,6%; Δε (Calf-thymus DNA (CT-DNA); 18 μM CT-DNA, at the (first) absorption band (CP-31398: 312)): 557,8 M−1 cm−1; shift of the wavelength of maximum absorption, alone vs DNA-bound (Calf-thymus DNA (CT-DNA); S3 Table, 18 μM CT-DNA): 8; Changes in absorbance (Calf-thymus DNA (CT-DNA); S3 Table, with CT-DNA): hypochromism
CC(=O)Oc1cccc(C=Cc2ccc3cccc(O)c3n2)c1 [4b]	7.88 ± 1.98 µM	10.7 ± 3.76 µM				IC50 (GM 07492): > 25 µM
COc1cc(C=Cc2ccc3cccc(O)c3n2)cc(OC(C)=O)c1OC(C)=O [7b]			> 25 µM	> 25 µM	172 °C	
CC(=O)Oc1ccc(C=Cc2ccc3cccc(OC(C)=O)c3n2)c(OC(C)=O)c1 [8b]	> 25 µM	> 25 µM				
Oc1cc(O)c(C=Cc2ccc3cccc(O)c3n2)c(O)c1 [9b]	> 25 µM	> 25 µM				
CC(=O)Oc1cc(OC(C)=O)c(C=Cc2ccc3cccc(OC(C)=O)c3n2)c(OC(C)=O)c1 [10b]			> 25 µM	> 25 µM	189 °C	
Oc1cccc2ccc(C=Cc3ccccc3F)nc12 [11b]			15.4 ± 2.46 µM	8.38 ± 1.12 µM	239 °C	IC50 (GM 07492; Fibroblast): > 25 µM; times more effective against HCT116 (p53-/-) than against wild type cells (HCT116 (p53-/-); ratio of MTS IC50 values): 2–3 times
